Assay results: patent US9346795B2, “Substituted sulfonamides useful as antiapoptotic Bcl inhibitors” (Bristol-Myers Squibb Company, priority 2011, dated 2016)

Tests used:
[1] = molecular target: Bcl-2 (Homo sapiens (Human), UniProt P10415); test: Bcl-2/Bim Fluorescence Polarization Assay (FPA); format: binding
Procedure: Bcl-2/Bim Fluorescence Polarization Assay (FPA)
The assays were performed in black flat-bottom 384-well plates. […] The reaction was incubated at room temperature for 60 minutes and fluorescence polarization of the reaction was detected on the LJL Plate Reader. Inhibition data were calculated from mP values generated by the no protein control reactions for 100% inhibition and vehicle-only reactions for 0% inhibition. The final concentrations of reagents in the assay were 4.9 nM BCL-2, 5 nM fluoresceinated 18-mer BIM peptide and 1% DMSO. […] Compounds were dissolved at 10 mM in dimethylsulfoxide (DMSO) and evaluated at eleven concentrations. IC50 values were derived by non-linear regression analysis.

[2] = molecular target: Bcl-xL (Homo sapiens (Human), UniProt Q07817); test: Bcl-xL/Bim Fluorescence Resonance Energy Transfer Assay (FRET); format: binding
Bcl-xL, sequence (Q07817 whole entry): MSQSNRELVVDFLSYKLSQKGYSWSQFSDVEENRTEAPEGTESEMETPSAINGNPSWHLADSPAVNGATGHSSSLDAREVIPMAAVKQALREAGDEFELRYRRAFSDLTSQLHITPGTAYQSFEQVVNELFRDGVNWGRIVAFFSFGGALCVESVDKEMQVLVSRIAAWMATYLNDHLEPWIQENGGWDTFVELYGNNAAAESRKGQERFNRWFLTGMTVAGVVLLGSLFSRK
Procedure: Bcl-xL/Bim Fluorescence Resonance Energy Transfer Assay (FRET) The assays were performed in black flat-bottom 384-well plates. The final assay volume was 55 μl prepared from additions of Biotin-Bcl-xL (Bcl-xL: GENBANK® Accession No. […] The reaction was incubated at room temperature for 60 minutes. After 60 minutes, 5 μL of Streptavidin-Terbium FRET detection reagent (Perkin Elmer) was added to the reaction mixture and incubated at room temperature in the dark for 30 mins. […] Compounds were dissolved at 10 mM in dimethylsulfoxide (DMSO) and evaluated at eleven concentrations. IC50 values were derived by non-linear regression analysis.

Bcl-2, sequence (P10415 whole entry): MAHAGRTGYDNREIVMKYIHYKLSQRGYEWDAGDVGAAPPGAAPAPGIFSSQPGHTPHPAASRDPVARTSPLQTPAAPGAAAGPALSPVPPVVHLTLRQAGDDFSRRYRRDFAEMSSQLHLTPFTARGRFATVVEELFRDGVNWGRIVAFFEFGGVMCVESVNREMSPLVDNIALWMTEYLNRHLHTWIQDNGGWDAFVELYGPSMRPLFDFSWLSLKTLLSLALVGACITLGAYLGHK

IC50 [1] [nM]	IC50 [2] [nM]	SMILES
80	30	Cc1c(Cl)c(C(=O)N(CCC(F)(F)F)CCC(F)(F)F)nn1-c1ccc(C(=O)NS(=O)(=O)c2ccc3ccccc3c2)cc1C(=O)N1CCc2ccccc2C1 [Example 130, 4-chloro-5-methyl-1-(4-(naphthalen-2-ylsulfonylcarbamoyl)-2-(1,2,3,4-tetrahydroisoquinoline-2-carbonyl)phenyl)-N,N-bis(3,3,3-trifluoropropyl)-1H-pyrazole-3-carboxamide]
10	70	CCCCN(C(=O)c1nn(-c2ccc(C(=O)NS(=O)(=O)c3ccc4c(Cl)ccc(Br)c4c3)cc2C(=O)N2CCc3ccccc3C2)c(C)c1Cl)c1cccc(-c2ccc(Cl)cc2)c1 [Example 217, 1-(4-(8-bromo-5-chloronaphthalen-2-ylsulfonylcarbamoyl)-2-(1,2,3,4-tetrahydroisoquinoline-2-carbonyl)phenyl)-N-butyl-4-chloro-N-(4′-chlorobiphenyl-3-yl)-5-methyl-1H-pyrazole-3-carboxamide]
90	20	CCCCN(CCCC)C(=O)c1nn(-c2ccc(C(=O)NS(=O)(=O)c3ccc4ccccc4c3)cc2C(=O)N2Cc3ccccc3C[C@H]2CN2CCN(CCO)CC2)c(C)c1Cl [Example 115, N,N-dibutyl-4-chloro-1-(2-((S)-3-((4-(2-hydroxyethyl)piperazin-1-yl)methyl)-1,2,3,4-tetrahydroisoquinoline-2-carbonyl)-4-(naphthalen-2-ylsulfonylcarbamoyl)phenyl)-5-methyl-1H-pyrazole-3-carboxamide]
20	50	CCCCc1c(-c2ccc(C(=O)NS(=O)(=O)c3ccc4c(Cl)ccc(Br)c4c3)cc2C(=O)N2CCc3ccccc3C2)c(C(=O)OCC)nn1-c1ccc(Oc2cccc(Cl)c2)cc1 [Example 251, ethyl 4-(4-(8-bromo-5-chloronaphthalen-2-ylsulfonylcarbamoyl)-2-(1,2,3,4-tetrahydroisoquinoline-2-carbonyl)phenyl)-5-butyl-1-(4-(3-chlorophenoxy)phenyl)-1H-pyrazole-3-carboxylate]
4.19	20	CCCCN(CCCC)C(=O)c1nn(-c2ccc(C(=O)NS(=O)(=O)c3cc(Br)c4c(c3)c(Br)cn4CC)cc2C(=O)N2CCc3ccccc3C2)c(C)c1Cl [Example 85, N,N-dibutyl-4-chloro-1-(4-(3,7-dibromo-1-ethyl-1H-indol-5-ylsulfonylcarbamoyl)-2-(1,2,3,4-tetrahydroisoquinoline-2-carbonyl)phenyl)-5-methyl-1H-pyrazole-3-carboxamide]
150	80	CCCCN(CCCC)C(=O)c1nn(-c2ccc(C(=O)NS(=O)(=O)c3ccc4ccc(C(=O)N(C)C)cc4c3)cc2C(=O)N2CCc3ccccc3C2)c(C)c1Cl [Example 48, N,N-Dibutyl-4-chloro-1-(4-(7-(dimethylcarbamoyl)naphthalen-2-ylsulfonylcarbamoyl)-2-(1,2,3,4-tetrahydroisoquinoline-2-carbonyl)phenyl)-5-methyl-1H-pyrazole-3-carboxamide]

The remaining lines, values behind:

SMILES	IC50 [1] [nM]	IC50 [2] [nM]
CCCCN(CCCC)C(=O)c1nn(-c2ccc(C(=O)NS(=O)(=O)c3ccc4c(Cl)ccc(Cl)c4c3)cc2C(=O)N2CCc3ccccc3C2)c(C)c1Cl [Example 44, N,N-dibutyl-4-chloro-1-(4-(5,8-dichloronaphthalen-2-ylsulfonylcarbamoyl)-2-(1,2,3,4-tetrahydroisoquinoline-2-carbonyl)phenyl)-5-methyl-1H-pyrazole-3-carboxamide]	7.25	30
CCCCN(C(=O)c1nn(-c2ccc(C(=O)NS(=O)(=O)c3ccc4ccccc4c3)cc2C(=O)N2CCc3ccccc3C2)c(C)c1Cl)c1ccc2c(c1)OCCO2 [Example 149, N-butyl-4-chloro-N-(2,3-dihydrobenzo[b][1,4]dioxin-6-yl)-5-methyl-1-(4-(naphthalen-2-ylsulfonylcarbamoyl)-2-(1,2,3,4-tetrahydroisoquinoline-2-carbonyl)phenyl)-1H-pyrazole-3-carboxamide]	70	30
CCCCN(C(=O)c1nn(-c2ccc(C(=O)NS(=O)(=O)c3ccc4c(Cl)ccc(Cl)c4c3)cc2C(=O)N2CCc3ccccc3C2)c(C)c1Cl)c1cccc(-c2cccc(Cl)c2)c1 [Example 222, N-butyl-4-chloro-N-(3′-chlorobiphenyl-3-yl)-1-(4-(5,8-dichloronaphthalen-2-ylsulfonylcarbamoyl)-2-(1,2,3,4-tetrahydroisoquinoline-2-carbonyl)phenyl)-5-methyl-1H-pyrazole-3-carboxamide]	70	40
CCCCN(CCCC)C(=O)c1nn(-c2ccc(C(=O)NS(=O)(=O)c3ccc4ccccc4c3)cc2C(=O)N2Cc3ccccc3C[C@H]2COCCCOC)c(C)c1Cl [Example 105, N,N-Dibutyl-4-chloro-1-(2-((S)-3-((3-methoxypropoxy)methyl)-1,2,3,4-tetrahydroisoquinoline-2-carbonyl)-4-(naphthalen-2-ylsulfonylcarbamoyl)phenyl)-5-methyl-1H-pyrazole-3-carboxamide]	20	30
CCCCN(CCCC)C(=O)c1nn(-c2ccc(C(=O)NS(=O)(=O)c3ccc4ccccc4c3)cc2C(=O)N2Cc3ccccc3C[C@@H]2C(=O)O)c(C)c1Cl [Example 93, (3R)-2-(2-(4-Chloro-3-(dibutylcarbamoyl)-5-methyl-1H-pyrazol-1-yl)-5-(naphthalen-2-ylsulfonylcarbamoyl)benzoyl)-1,2,3,4-tetrahydroisoquinoline-3-carboxylic acid]	1650	200
CCCCN(CCCC)C(=O)c1nn(-c2ccc(C(=O)NS(=O)(=O)c3ccc4cccc(OCCCN5CCOCC5)c4c3)cc2C(=O)N2CCc3ccccc3C2)c(C)c1Cl [Example 32, N,N-dibutyl-4-chloro-5-methyl-1-(4-(8-(3-morpholinopropoxy)naphthalen-2-ylsulfonylcarbamoyl)-2-(1,2,3,4-tetrahydroisoquinoline-2-carbonyl)phenyl)-1H-pyrazole-3-carboxamide]	290	50
CCCN(CCC)c1nn(-c2ccc(C(=O)NS(=O)(=O)c3ccc4cccc(Cl)c4c3)cc2C(=O)N2Cc3ccccc3C[C@H]2CO)c(C(F)(F)F)c1Cl [Example 195, 4-(4-Chloro-3-(dipropylamino)-5-(trifluoromethyl)-1H-pyrazol-1-yl)-N-(8-chloronaphthalen-2-ylsulfonyl)-3-((S)-3-(hydroxymethyl)-1,2,3,4-tetrahydroisoquinoline-2-carbonyl)benzamide]	30	290
CCCCN(CCCC)C(=O)c1nn(-c2ccc(C(=O)NS(=O)(=O)c3ccc4cccc(OCCN5CCOCC5)c4c3)cc2C(=O)N2CCc3ccccc3C2)c(C)c1Cl [Example 27, N,N-dibutyl-4-chloro-5-methyl-1-(4-(8-(2-morpholinoethoxy)naphthalen-2-ylsulfonylcarbamoyl)-2-(1,2,3,4-tetrahydroisoquinoline-2-carbonyl)phenyl)-1H-pyrazole-3-carboxamide]	110	40
CCCCN(CCCC)C(=O)c1cn(CC(=O)NC)c(-c2ccc(C(=O)NS(=O)(=O)c3ccc4ccccc4c3)cc2C(=O)N2CCc3ccccc3C2)n1 [Example 265, N,N-Dibutyl-1-(2-(methylamino)-2-oxoethyl)-2-(4-(naphthalen-2-ylsulfonylcarbamoyl)-2-(1,2,3,4-tetrahydroisoquinoline-2-carbonyl)phenyl)-1H-imidazole-4-carboxamide]	430	70
CCCCN(CCCC)C(=O)c1nn(-c2ccc(C(=O)NS(=O)(=O)c3ccc4ccccc4c3)cc2C(=O)N2Cc3ccccc3C[C@H]2COCCO)c(C)c1Cl [Example 119, N,N-Dibutyl-4-chloro-1-(2-((S)-3-((2-hydroxyethoxy)methyl)-1,2,3,4-tetrahydroisoquinoline-2-carbonyl)-4-(naphthalen-2-ylsulfonylcarbamoyl)phenyl)-5-methyl-1H-pyrazole-3-carboxamide]	50	10
CCCCN(CCCC)C(=O)c1nn(-c2ccc(C(=O)NS(=O)(=O)c3ccc4ccc(OCCCN(C)C)cc4c3)cc2C(=O)N2CCc3ccccc3C2)c(C)c1Cl [Example 39, N,N-dibutyl-4-chloro-1-(4-(7-(3-(dimethylamino)propoxy)-naphthalen-2-ylsulfonylcarbamoyl)-2-(1,2,3,4-tetrahydroisoquinoline-2-carbonyl)phenyl)-5-methyl-1H-pyrazole-3-carboxamide]	1460	20
CCCCN(CCCC)C(=O)c1nn(-c2ccc(C(=O)NS(=O)(=O)c3ccc4c(c3)CCN4C(=O)Cc3ccc(Cl)c(Cl)c3)cc2C(=O)N2CCc3ccccc3C2)c(C)c1Cl [Example 64, N,N-dibutyl-4-chloro-1-(4-(1-(2-(3,4-dichlorophenyl)acetyl)indolin-5-ylsulfonylcarbamoyl)-2-(1,2,3,4-tetrahydroisoquinoline-2-carbonyl)phenyl)-5-methyl-1H-pyrazole-3-carboxamide]	200	2450
CCCCN(CCCC)C(=O)c1nn(-c2ccc(C(=O)NS(=O)(=O)c3ccc4ccc(OCCCN5CCOCC5)cc4c3)cc2C(=O)N2CCc3ccccc3C2)c(C)c1Cl [Example 34, N,N-dibutyl-4-chloro-5-methyl-1-(4-(7-(3-morpholinopropoxy)naphthalen-2-ylsulfonylcarbamoyl)-2-(1,2,3,4-tetrahydroisoquinoline-2-carbonyl)phenyl)-1H-pyrazole-3-carboxamide]	290	40
